According to PMC6440977, “Nucleoside analogue activators of cyclic AMP-independent protein kinase A of Trypanosoma” (Nature Communications, 2019):
Values joined by “and” are separate entries in the source; they are usually repeats but may differ in a detail not shown here. Identical values can stand only once. Ends that are not written are not given here. * marks the point of attachment. Myristoyl = CCCCCCCCCCCCCC(=O)*

Columns and labels:
T. brucei PKA = T. brucei PKA (Trypanosoma brucei brucei, UniProt Q9GU80); test: In vivo PKA reporter assay (VASP Ser-157 phosphorylation, western blot); format: cell-based; details: for effect on in vivo PKA activity (VASP phosphorylation), in words: wild type background; for % VASP phosphorylation: independent replicates;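 for % VASP phosphorylation: Phosphorylated VASP as percent of total VASP band signal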;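 for all read-outs here: T. brucei cells expressing human VASP as heterologous PKA substrate, compound exposure at 37 °C, western blot of phospho (50 kDa) versus unphosphorylated (46 kDa) VASP band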
[1] = molecular target: T. brucei PKAR-PKAC1 holoenzyme (Trypanosoma brucei, UniProt Q9GU80); test: biochemical; format: biochemical; details: for In vitro kinase assay: technical replicates
Sequence of T. brucei PKAR-PKAC1 holoenzyme (Q38DR5 entry or part of it): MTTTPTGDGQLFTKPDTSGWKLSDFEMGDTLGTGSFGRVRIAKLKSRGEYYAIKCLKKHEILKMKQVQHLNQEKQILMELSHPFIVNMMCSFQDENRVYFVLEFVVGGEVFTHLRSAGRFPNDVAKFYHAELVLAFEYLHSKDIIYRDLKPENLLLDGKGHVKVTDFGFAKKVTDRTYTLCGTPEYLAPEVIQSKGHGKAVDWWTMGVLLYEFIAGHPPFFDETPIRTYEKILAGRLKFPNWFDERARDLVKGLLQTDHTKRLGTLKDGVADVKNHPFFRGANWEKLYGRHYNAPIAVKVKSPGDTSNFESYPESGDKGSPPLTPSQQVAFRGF
Sequence of T. brucei PKAR-PKAC1 holoenzyme (Q9GU80 entry or part of it): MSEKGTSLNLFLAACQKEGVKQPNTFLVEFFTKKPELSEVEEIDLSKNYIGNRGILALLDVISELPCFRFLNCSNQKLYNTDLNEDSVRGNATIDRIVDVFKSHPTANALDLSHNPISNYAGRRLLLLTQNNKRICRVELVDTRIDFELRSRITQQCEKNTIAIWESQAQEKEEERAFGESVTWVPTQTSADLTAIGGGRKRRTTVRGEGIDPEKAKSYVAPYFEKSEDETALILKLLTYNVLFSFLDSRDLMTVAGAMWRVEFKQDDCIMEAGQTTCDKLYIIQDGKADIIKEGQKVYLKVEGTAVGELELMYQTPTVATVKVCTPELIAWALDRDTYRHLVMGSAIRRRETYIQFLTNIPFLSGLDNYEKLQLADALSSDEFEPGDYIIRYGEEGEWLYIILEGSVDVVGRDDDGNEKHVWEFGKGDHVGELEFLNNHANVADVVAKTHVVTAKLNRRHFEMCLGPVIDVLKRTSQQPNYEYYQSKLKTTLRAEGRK

Sequence of T. brucei PKA (Q38DS1 entry or part of it): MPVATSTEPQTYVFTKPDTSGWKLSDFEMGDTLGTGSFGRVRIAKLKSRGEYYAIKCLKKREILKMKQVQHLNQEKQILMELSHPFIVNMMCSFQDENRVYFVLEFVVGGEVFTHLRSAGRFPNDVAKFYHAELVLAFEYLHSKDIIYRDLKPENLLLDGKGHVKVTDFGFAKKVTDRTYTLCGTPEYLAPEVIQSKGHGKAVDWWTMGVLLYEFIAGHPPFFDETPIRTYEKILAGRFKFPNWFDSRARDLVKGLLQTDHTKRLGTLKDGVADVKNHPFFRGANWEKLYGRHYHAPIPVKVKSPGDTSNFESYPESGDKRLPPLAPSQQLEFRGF
Sequence of T. brucei PKA (Q38DR5 entry or part of it, further chain): as the sequence (Q38DR5 entry or part of it) above
Sequence of T. brucei PKA (Q9GU80 entry or part of it): as the sequence (Q9GU80 entry or part of it) above

| Molecule | effect on in vivo PKA activity (VASP phosphorylation), in words (T. brucei PKA) | % VASP phosphorylation (T. brucei PKA; 10 µM) | % VASP phosphorylation (T. brucei PKA; 20 µM) | % VASP phosphorylation (T. brucei PKA; 50 µM) | % VASP phosphorylation (T. brucei PKA; 100 µM) | further results |
| --- | --- | --- | --- | --- | --- | --- |
| Nc1nc(Cl)nc2c1ncn2[C@@H]1O[C@H](CO)[C@@H](O)[C@H]1O [2-Cl-Ado, 2-Chloroadenosine] | no effect |  |  |  |  |  |
| Nc1ncnc2c1cc(Br)n2[C@@H]1O[C@H](CO)[C@@H](O)[C@H]1O [6-Br-Tu, 8-Bromo-7-deazaadenosine] | no effect |  |  |  |  |  |
| OC[C@H]1O[C@@H](n2cnc3c(Cl)ncnc32)[C@H](O)[C@@H]1O [6-Cl-PuR, 6-Chloropurine riboside] | no effect | 20.6897% and 25.2945% and 23.0524% | 24.6262% and 26.5882% and 23.4334% | 28.7467% and 26.8897% and 25.4464% | 33.239% and 35.1611% and 28.0731% | % VASP phosphorylation (T. brucei PKA; 2 µM): 27.0392% and 26.6154% and 24.2815%; % VASP phosphorylation (T. brucei PKA; 5 µM): 24.7092% and 27.9877% and 23.4187% |
| Nc1ncnc2c1nc(Br)n2[C@@H]1O[C@H](CO)[C@@H](O)[C@H]1O [8-Br-Ado, 8-Bromoadenosine] | no effect |  |  |  |  |  |
| CO[C@@H]1[C@H](O)[C@@H](CO)O[C@H]1n1c(Sc2ccc(Cl)cc2)nc2c(N)ncnc21 [8-pCPT-2'O-me-Ado] |  | 17.7877% and 18.0048% and 22.1674% | 16.9524% and 18.6949% and 22.9783% | 17.4825% and 18.9639% and 23.6777% | 18.5972% and 20.7972% and 25.3942% | % VASP phosphorylation (T. brucei PKA; 250 µM): 20.7922% and 23.6499% and 24.007% |
| CO[C@@H]1[C@@H]2OP(=O)(O)OC[C@H]2O[C@H]1n1c(Sc2ccc(Cl)cc2)nc2c(N)ncnc21 [8-pCPT-2'O-me-cAMP] |  | 41.2113% and 39.9561% and 36.9456% | 34.7976% and 43.6436% and 30.9578% | 31.7213% and 39.4904% and 29.8481% | 33.7045% and 41.4368% and 33.2969% | % VASP phosphorylation (T. brucei PKA; 250 µM): 30.1497% and 39.413% and 35.4525% |
| COC1C2OP(=O)(O)OCC2OC1n1c(Sc2ccc(Cl)cc2)nc2c(=O)[nH]c(N)nc21 (stereo not shown) [8-pCPT-2'O-me-cGMP] |  | 38.4582% and 35.5972% and 37.6064% | 40.2883% and 38.6651% and 38.3333% | 40.3308% and 52.7132% and 36.328% | 39.4763% and 48.2408% and 35.1104% | % VASP phosphorylation (T. brucei PKA; 250 µM): 43.9368% and 67.0264% and 36.1457% |
| CO[C@@H]1[C@H](O)[C@@H](CO)O[C@H]1n1c(Sc2ccc(Cl)cc2)nc2c(N)ncnc21 [8-pCPT-2-′O-Me-Ado, 8-(4-Chlorophenylthio)-2'-O-methyladenosine] | slight inhibitory |  |  |  |  |  |
| CO[C@@H]1[C@@H]2OP(=O)(O)OC[C@H]2O[C@H]1n1c(Sc2ccc(Cl)cc2)nc2c(N)ncnc21 [8-pCPT-2′-O-Me-cAMP, 8-(4-Chlorophenylthio)-2'-O-methyladenosine-3',5'-cyclic monophosphate] | No PKA activation |  |  |  |  |  |
| Nc1ncnc2nc(Sc3ccc(Cl)cc3)[nH]c12 [8-pCPT-Ade, 8-(4-Chlorophenylthio)adenine] | no effect |  |  |  |  |  |
| Nc1ncnc2c1nc(Sc1ccc(Cl)cc1)n2[C@@H]1O[C@H](CO)[C@@H](O)[C@H]1O [8-pCPT-Ado, 8-(4-Chlorophenylthio)adenosine] | slight inhibitory |  |  |  |  |  |
| Nc1nc2c(nc(Sc3ccc(Cl)cc3)n2[C@@H]2O[C@H](CO)[C@@H](O)[C@H]2O)c(=O)[nH]1 [8-pCPT-Guo, 8-(4-Chlorophenylthio)guanosine] | no effect |  |  |  |  |  |
| Nc1ncnc2c1nc(Sc1ccc(Cl)cc1)n2[C@@H]1O[C@@H]2COP(=O)([O-])O[C@H]2[C@H]1O.[Na+] [8-pCPT-cAMP, 8-(4-Chlorophenylthio)adenosine-3',5'-cyclic monophosphate] | No PKA activation | 24.5763% and 23.1009% and 28.0286% |  | 16.5457% and 18.6378% and 24.8744% | 10.9425% and 13.8058% and 25.7149% | % VASP phosphorylation (T. brucei PKA; 250 µM): 9.807% and 10.2688% and 23.6208%; % VASP phosphorylation (T. brucei PKA; 1000 µM): 10.7438% and 15.1961% and 19.6401% |
| Nc1nc2c(nc(Sc3ccc(Cl)cc3)n2[C@@H]2O[C@@H]3COP(=O)(O)O[C@H]3[C@H]2O)c(=O)[nH]1 [8-pCPT-cGMP, 8-(4-Chlorophenylthio)guanosine-3',5'-cyclic monophosphate] |  | 25.8142% and 29.2369% and 19.6808% |  | 27.9869% and 31.8421% and 17.4767% | 30.4284% and 21.992% and 28.117% | % VASP phosphorylation (T. brucei PKA; 250 µM): 30.7048% and 20.4067% and 21.3305%; % VASP phosphorylation (T. brucei PKA; 1000 µM): 32.0969% and 20.8683% and 24.288% |
| OCCN(CCO)c1nc(N2CCCCC2)c2nc(N(CCO)CCO)nc(N3CCCCC3)c2n1 [Dipyridamol] |  |  |  |  |  | In vitro kinase assay ([1]; 1 µM): 0.38 U/ml and 0.36 U/ml; In vitro kinase assay ([1]; 100 µM): 0.31 U/ml and 0.36 U/ml; In vitro kinase assay ([1]; 1 mM): 0.38 U/ml and 0.41 U/ml |
| Nc1ncnc2c1ccn2[C@@H]1O[C@H](CO)[C@@H](O)[C@H]1O [Tubercidin, 7-Deazaadenosine] | No effect |  |  |  |  | EC50 [1]: 5 ± 0.5 µM; In vitro kinase assay ([1]; 0.1 µM): 0.31 U/ml and 0.36 U/ml; In vitro kinase assay ([1]; 0.78 µM): 0.36 U/ml and 0.39 U/ml; In vitro kinase assay ([1]; 1.56 µM): 0.39 U/ml and 0.42 U/ml; In vitro kinase assay ([1]; 3.13 µM): 0.51 U/ml and 0.54 U/ml; In vitro kinase assay ([1]; 6.25 µM): 0.7 U/ml and 0.67 U/ml; In vitro kinase assay ([1]; 12.5 µM): 0.84 U/ml and 0.75 U/ml; In vitro kinase assay ([1]; 25 µM): 0.84 U/ml and 0.93 U/ml; In vitro kinase assay ([1]; 50 µM): 0.89 U/ml and 0.85 U/ml |
| CC(=O)OCOP1(=O)OC[C@H]2O[C@@H](n3cnc4c(N)ncnc43)[C@H](O)[C@@H]2O1 (stereo partly shown) [cAMP-AM, Adenosine-3',5'-monophosphate, acetoxymethyl ester] | No PKA activation | 36.276% and 37.2% and 34.8195% | 33.4307% and 32.7356% and 35.3637% | 35.9017% and 33.7363% and 34.7458% | 35.4076% and 39.0007% and 33.2483% | % VASP phosphorylation (T. brucei PKA; 200 µM): 44.3984% and 35.5186% and 38.5924% |
| CC(=O)OCOP1(=O)OC[C@H]2O[C@@H](n3cnc4c(=O)[nH]c(N)nc43)[C@H](O)[C@@H]2O1 (stereo partly shown) [cGMP-AM, Guanosine-3',5'-cyclic monophosphate, acetoxymethyl ester] |  | 34.8925% and 34.7802% and 32.2694% | 44.672% and 38.9969% and 29.3979% | 40.2424% and 33.9184% and 40.637% | 34.6686% and 36.9156% and 43.827% | % VASP phosphorylation (T. brucei PKA; 200 µM): 34.2202% and 37.453% and 36.5899% |
| myr-PKI(14–22): myristoylated membrane-permeable peptide inhibitor of PKA (Myristoyl-SGRTGRRNA; UniProt P61925 14-22, looked up, fragment) | reduced the measured activity to background |  |  |  |  | VASP phosphorylation upon treatment with inhibitor alone (T. brucei PKA; depending on the inhibitor batch): 3-10% |
